In series [1] the test system is XIAP mRNA. The series can be described thus: XIAP mRNA knock-down in H460 cells (real-time RT-PCR / TaqMan). It counts as cell-based, human. As to conditions: 2 × 2 MBO; NCI-H460 cells, 9 hours post-transfection; relative level (mock control 1.01). (In general: Quantitative PCR measures a nucleic acid by following its amplification.)
Series [2] has as its system XIAP mRNA. Described as above. The format is cell-based, human. How it is done: RNA was extracted from cells lysed in RLT buffer (QIAGEN, Valencia, Calif.), and purified using QIAGEN RNeasy columns/kits. Real-time quantitative PCR was performed on a Perkin-Elmer ABI 7700 Prism PCR machine. RNA was reverse transcribed and amplified according to the TaqMan Universal PCR Master Mix protocol of PE Biosystems, using primers and probes designed to specifically recognize XIAP, HIAP1, survivin, or GAPDH. For human survivin, the forward primer was 5′-[…]-3′ (SEQ ID NO: 263), the reverse primer was 5′-GAAAGGAAAGCGCAACCG-3′ (SEQ ID NO: 264), and the probe was 5′-(FAM)[…](TAMRA)-3′ (SEQ ID NO: 265). For human HIAP1, the forward primer was 5′-[…]-3′ (SEQ ID NO: 266), the reverse primer was 5′-[…]-3′ (SEQ ID NO: 267), and the probe was 5′-(FAM)[…](TAMRA)-3′ (SEQ ID NO: 268). For human XIAP, the forward primer was 5′-[…]-3′ (SEQ ID NO: 269), the reverse primer was 5′-[…]-3′ (SEQ ID NO: 270), and the probe was 5′-(FAM)[…](TAMRA)-3′ (SEQ ID NO: 271). For human GAPDH, the forward primer was 5′-GAAGGTGAAGGTCGGAGTC-3′ (SEQ ID NO: 272), the reverse primer was 5′-GAAGATGGTGATGGGATTC-3′ (SEQ ID NO: 273), and the probe was 5′-(JOE)[…](TAMRA)-3′ (SEQ ID NO: 274). FAM is 6-carboxyfluoroscein, JOE is 6-carboxy-4,5-dichloro-2,7-dimethoxyfluoroscein, and TAMRA is 6-carboxy-N,N,N′,N′-tetramethylrhodamine. FAM and JOE are 5′ reporter dyes, while TAMRA is a 3′ quencher dye.
Relative quantification of gene expression was performed as described in the PE Biosystems manual using GAPDH as an internal standard. The comparative Ct (cycle threshold) method was used for relative quantitation of IAP mRNA levels compared to GAPDH mRNA levels. Briefly, real-time fluorescence measurements were taken at each PCR cycle and the threshold cycle (Ct) value for each sample was calculated by determining the point at which fluorescence exceeded a threshold limit of 30 times the baseline standard deviation. The average baseline value and the baseline SD are calculated starting from the third cycle baseline value and stopping at the baseline value three cycles before the signal starts to exponentially rise. The PCR primers and/or probes for the specific IAPs were designed to span at least one exon-intron boundary separated by 1 kb or more of genomic DNA, to reduce the possibility of amplifying and detecting genomic DNA contamination. The specificity of the signal, and possible contamination from DNA, were verified by treating some RNA samples with either DNase or RNase, prior to performing the reverse transcription and PCR reaction steps.
A portion of the 96 nucleobase oligomers depicted in Table 2 were rescreened for their ability to knock-down XIAP mRNA in NCI-H460 cells at […] post-transfection.
One day prior to transfection, H460 cells were plated in 6- or 96-well tissue culture plates. Phosphorothioate antisense oligonucleotides were delivered into cells with Lipofectamine 2000 (Life Technologies) in the form of liposome-oligonucleotide complexes. Following a 4.5 or 6 h transfection, the transfection medium was replaced with RPMI medium containing 10% FBS, and the cells incubated for another 24 or 48 h.
Total RNA from H460 cells treated with liposome-oligonucleotide complexes for 6 hours was immediately isolated using RNeasy mini spin columns and DNase treatment (QIAGEN, Valencia, Calif.). Specific XIAP mRNA was measured using a real-time quantitative RT-PCR method. […]

Oligonucleotides are written 5' to 3', each unit as a sugar letter and its base; * is a phosphorothioate linkage, no mark a phosphodiester; rarer units and linkages stand in square brackets, end groups in braces. Plain capitals give the bases only. d = 2'-deoxy (DNA); m = 2'-O-methyl

As to “ACTGGGCTTCCAATCAGTT (antisense; sugars from the 5' end m2 d15 m2, backbone, methylation of C and T or U not given here; further chemistry not fully specified) [Code H8]”, the “XIAP RNA” value with XIAP mRNA [1] was determined as 0.61.

Take “TCTGCCATGGATGGATTTC (antisense; sugars from the 5' end m2 d15 m2, backbone, methylation of C and T or U not given here; further chemistry not fully specified) [Code G7]”: in the series with XIAP mRNA [2], the “XIAP down-regulation H460 RNA” value is on record as 41%. The “XIAP RNA” value in the series with XIAP mRNA [1] is recorded as 0.66.

Regarding “AGTTCTCAAAAGATAGTCT (antisense; sugars from the 5' end m2 d15 m2, backbone and T or U not given here; further chemistry not fully specified) [Code G5]”, the “XIAP down-regulation H460 RNA” value in the series with XIAP mRNA [2] came out at 30%. Besides, the “XIAP RNA” value in the series with XIAP mRNA [1] turned out to be 0.68.

As to “ATTCAAGGGATCAAAGTTG (antisense; sugars from the 5' end m2 d15 m2, backbone and T or U not given here; further chemistry not fully specified) [Code A2]”, in the series on XIAP mRNA [2], the “XIAP down-regulation H460 RNA” value was found to be 58%. For the same substance, the “XIAP RNA” value in the series on XIAP mRNA [1] was 0.42. For “CATCTTGGATACTGTCTTT (antisense; sugars from the 5' end m2 d15 m2, backbone, methylation of C and T or U not given here; further chemistry not fully specified) [Code D10]”, in that order: 55% and 0.54. The corresponding values for “TTACCACATCATTCAAGTC (antisense; sugars from the 5' end m2 d15 m2, backbone and T or U not given here; further chemistry not fully specified) [Code F2]” are 34% and 0.64. On to “AAGTCAGTTCACATCACAC (antisense; sugars from the 5' end m2 d15 m2, linkages s1 o16 s1 (s phosphorothioate, o phosphodiester), methylation of C not given here) [Code F11]”, for which, in the series on XIAP mRNA [2], the “XIAP down-regulation H460 RNA” value stood at 64%. Further, the “XIAP RNA” value with XIAP mRNA [1] is on record as 0.36. Take “TCTAGAGGGTGGCTCAGGA (antisense; sugars from the 5' end m2 d15 m2, backbone and T or U not given here; further chemistry not fully specified) [Code B1]”: in the series with XIAP mRNA [2], the “XIAP down-regulation H460 RNA” value is 66%. In addition, the “XIAP RNA” value with XIAP mRNA [1] was found to be 0.34. The corresponding values for “GAGTAAAAAAAATGGATAA (mG*mAdGdTdAdAdAdAdAdAdAdAdTdGdGdAdTmA*mA; antisense) [Code G11]” are 33% and 0.67. For “TTTCTCAGTAGTTCTTACC (antisense; sugars from the 5' end m2 d15 m2, backbone, methylation of C and T or U not given here; further chemistry not fully specified) [Code D9]”, in that order: 39% and 0.73. Regarding “TTGTAGACTGCGTGGCACT (antisense; sugars from the 5' end m2 d15 m2, backbone and T or U not given here; further chemistry not fully specified) [Code B5]”, the “XIAP down-regulation H460 RNA” value in the series on XIAP mRNA [2] stood at 61%. In addition, the “XIAP RNA” value in the series with XIAP mRNA [1] stood at 0.38. For “TGAGAGCCCTTTTTTTGTT (antisense; sugars from the 5' end m2 d15 m2, backbone and T or U not given here; further chemistry not fully specified) [Code D1]”, the “XIAP down-regulation H460 RNA” value in the series on XIAP mRNA [2] is listed as 75%. The “XIAP RNA” value with XIAP mRNA [1] is given as 0.25.

On to “AAAGCATAAAATCCAGCTC (antisense; sugars from the 5' end m2 d15 m2, backbone, methylation of C and T or U not given here; further chemistry not fully specified) [Code C8]”, for which the “XIAP down-regulation H460 RNA” value in the series with XIAP mRNA [2] came out at 16%. Also, in the series with XIAP mRNA [1], the “XIAP RNA” value was 1.01. The corresponding values for “ATTATTTTCTTAATGTCCT (antisense; sugars from the 5' end m2 d15 m2, backbone, methylation of C and T or U not given here; further chemistry not fully specified) [Code A10]” are 29% and 0.85. The corresponding values for “TTAGCAAAATATGTTTTAA (antisense; sugars from the 5' end m2 d15 m2, backbone and T or U not given here; further chemistry not fully specified) [Code G1]” are 33% and 0.67. On to “MAmUGACCACTTCCTCTATmGmG (ANGACCACNNCCNCNANGG; 2'-O-methyl modifications, chemistry not fully specified) [DE4 rev, reference compound]”, for which, in the series with XIAP mRNA [1], the “XIAP RNA” value amounted to 1.06. Consider “CTTGAAAGTAATGACTGTG (antisense; sugars from the 5' end m2 d15 m2, backbone, methylation of C and T or U not given here; further chemistry not fully specified) [Code C11]”, for which the “XIAP down-regulation H460 RNA” value in the series on XIAP mRNA [2] worked out at 52%. Further, the “XIAP RNA” value in the series with XIAP mRNA [1] stood at 0.44. “AGCACATTGTTTACAAGTG (antisense; sugars from the 5' end m2 d15 m2, backbone, methylation of C and T or U not given here; further chemistry not fully specified) [Code A11]”: the “XIAP down-regulation H460 RNA” value in the series on XIAP mRNA [2] stood at 68%. For the same substance, the “XIAP RNA” value in the series with XIAP mRNA [1] turned out to be 0.36.

“ACAGGACTACCACTTGGAA (antisense; chemistry not fully specified) [Code B4]”: the “XIAP down-regulation H460 RNA” value in the series on XIAP mRNA [2] is reported as 76%.

For “AAGTAAAGATCCGTGCTTC (antisense; sugars from the 5' end m2 d15 m2, backbone, methylation of C and T or U not given here; further chemistry not fully specified) [Code H7]”, in the series with XIAP mRNA [2], the “XIAP down-regulation H460 RNA” value amounted to 63%. For the same substance, in the series with XIAP mRNA [1], the “XIAP RNA” value was determined as 0.49. Consider “ACATTATATTAGGAAATCC (mA*mCdAdTdTdAdTdAdTdTdAdGdGdAdAdAdTmC*mC; antisense) [Code D3]”, for which the “XIAP down-regulation H460 RNA” value in the series with XIAP mRNA [2] was 30%. In the series on XIAP mRNA [1], the “XIAP RNA” value came to 0.68.

On to “AAGCAGTGCACTTGGTCAC (antisense; sugars from the 5' end m2 d15 m2, linkages s1 o16 s1 (s phosphorothioate, o phosphodiester), methylation of C not given here) [Code G6]”, for which, in the series on XIAP mRNA [2], the “XIAP down-regulation H460 RNA” value is 69%. For “AGATGGTATCATCAATTCT (antisense; sugars from the 5' end m2 d15 m2, backbone, methylation of C and T or U not given here; further chemistry not fully specified) [Code F9]”, the “XIAP down-regulation H460 RNA” value in the series on XIAP mRNA [2] stood at 19%. In the series with XIAP mRNA [1], the “XIAP RNA” value was found to be 0.97.

For “ATTGGTTCCAATGTGTTCT (antisense; chemistry not fully specified) [Code F1]”, in the series on XIAP mRNA [2], the “XIAP down-regulation H460 RNA” value was 81%. The same measure, in the same setting: next, “TATCCACTTATGACATAAA (antisense; chemistry not fully specified) [Code A3]”: 27%.

Source of the values: patent US8012944B2, “Method for treating cancer using IAP antisense oligomer and chemotherapeutic agent” (Pharmascience Inc., priority 2003, dated 2011).
